Reference: patent US8835469B2 (Cadila Healthcare Limited, priority 2009, dated 2014)

Biological target: T1, glucokinase (GK) enzyme (Homo sapiens, UniProt P35557)
T1 sequence (P35557 1-465): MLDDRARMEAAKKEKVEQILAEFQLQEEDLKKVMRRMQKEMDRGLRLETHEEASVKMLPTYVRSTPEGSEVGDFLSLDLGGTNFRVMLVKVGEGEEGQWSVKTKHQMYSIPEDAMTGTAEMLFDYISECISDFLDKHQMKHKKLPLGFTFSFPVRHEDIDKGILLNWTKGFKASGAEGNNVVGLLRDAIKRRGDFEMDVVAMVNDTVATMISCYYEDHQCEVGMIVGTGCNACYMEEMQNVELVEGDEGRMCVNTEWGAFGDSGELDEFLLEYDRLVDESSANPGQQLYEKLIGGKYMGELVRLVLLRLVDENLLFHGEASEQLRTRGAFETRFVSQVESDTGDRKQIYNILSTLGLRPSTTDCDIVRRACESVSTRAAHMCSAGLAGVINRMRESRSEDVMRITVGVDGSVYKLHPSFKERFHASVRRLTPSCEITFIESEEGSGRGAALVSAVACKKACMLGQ
Experiment: In-vitro glucokinase (GK) activation assay (coupled with glucose-6-phosphate dehydrogenase, absorbance at 340)
Type: biochemical
Settings: glucose 2.5 mM, read-out: % of GK activity wrt DMSO; for activity at 0.1 µM: 0.1 uM compound; for activity at 1 µM: 1 uM compound; for activity at 5 µM: 5 uM compound; for activity at 10 µM: 10 uM compound
Protocol: The compound of the invention was incubated with glucokinase (GK) enzyme (0.2 units) for 10 minutes in assay buffer at 26° C. After incubation, addition of glucose-6-phosphate dehydrogenase (2.5 units), ATP (1 mM) and glucose (2.5 mM). Absorbance is measured at 340 nm for 15 minutes with 10 second interval using UV transparent plate in kinetic mode on Spectramax-190 at 30° C.

Row | activity at 0.1 µM | activity at 1 µM | activity at 5 µM | activity at 10 µM | SMILES
1 | 114% | 159% | 287% | 329% | Cc1nnc(-c2ccc(Oc3cc(OC4CCN(C)C4=O)cc(C(=O)Nc4nc(CCN5CCOCC5=O)cs4)c3)cc2)o1 (centres unmarked) [Example 5, 3-(4-(5-Methyl-1,3,4-oxadiazol-2-yl)phenoxy)-5-((1-methyl-2-oxopyrrolidin-3-yl)oxy)-N-(4-(2-(3-oxomorpholino)ethyl)thiazol-2-yl)benzamide]
2 | 100% | 115% | 190% | 275% | Cc1nnc(-c2ccc(Oc3cc(OC4CCN(C)C4=O)cc(C(=O)NC4=NCCS4)c3)cc2)o1 (centres unmarked) [Example 6, N-(4,5-Dihydrothiazol-2-yl)-3-(4-(5-methyl-1,3,4-oxadiazol-2-yl)phenoxy)-5-((1-methyl-2-oxopyrrolidin-3-yl)oxy)benzamide]
3 | 164% | 314% | 356% | 347% | Cc1nc(-c2ccc(Oc3cc(OC4CCN(C)C4=O)cc(C(=O)Nc4nccs4)c3)cc2)no1 (centres unmarked) [Example 7, 3-(4-(5-Methyl-1,2,4-oxadiazol-3-yl)phenoxy)-5-((1-methyl-2-oxopyrrolidin-3-yl)oxy)-N-(thiazol-2-yl)benzamide]
4 | 134% | 195% | 218% | 235% | Cc1nnc(-c2ccc(Oc3cc(OC4CCN(C)C4=O)cc(C(=O)Nc4nnc(C5CC5)s4)c3)cc2)o1 (centres unmarked) [Example 8, N-(5-Cyclopropyl-1,3,4-thiadiazol-2-yl)-3-(4-(5-methyl-1,3,4-oxadiazol-2-yl)phenoxy)-5-((1-methyl-2-oxopyrrolidin-3-yl)oxy)benzamide]
5 | 168% | 292% | 345% | 346% | Cc1nnc(-c2ccc(Oc3cc(OC4CCN(C)C4=O)cc(C(=O)Nc4cnccn4)c3)cc2)o1 (centres unmarked) [Example 9, 3-(4-(5-Methyl-1,3,4-oxadiazol-2-yl)phenoxy)-5-((1-methyl-2-oxopyrrolidin-3-yl)oxy)-N-(pyrazin-2-yl)benzamide]
6 | 130% | 204% | 232% | 228% | Cc1nnc(-c2cccc(Oc3cc(OC4CCN(C)C4=O)cc(C(=O)Nc4nccs4)c3)c2)o1 (centres unmarked) [Example 10, 3-(3-(5-Methyl-1,3,4-oxadiazol-2-yl)phenoxy)-5-((1-methyl-2-oxopyrrolidin-3-yl)oxy)-N-(thiazol-2-yl)benzamide]
7 | 101% | 109% | 130% | 148% | Cc1nnc(-c2ccc(Oc3cc(OC4CCN(C)C4=O)cc(C(=O)n4c(N)nc5ccccc54)c3)cc2)o1 (centres unmarked) [Example 11, 3-(3-(2-Amino-1H-benzo[d]imidazole-1-carbonyl)-5-(4-(5-methyl-1,3,4-oxadiazol-2-yl)phenoxy)phenoxy)-1-methylpyrrolidin-2-one]
8 | 107% | 119% | 139% | 150% | Cc1nnc(-c2ccc(Oc3cc(OC4CCN(C)C4=O)cc(C(=O)Nc4cc(C)n(C(=O)OC(C)(C)C)n4)c3)cc2)o1 (centres unmarked) [Example 12, tert-Butyl 5-methyl-3-(3-(4-(5-methyl-1,3,4-oxadiazol-2-yl)phenoxy)-5-((1-methyl-2-oxopyrrolidin-3-yl)oxy)benzamido)-1H-pyrazole-1-carboxylate]
9 | 271% | 298% | 288% | 267% | Cc1nnc(-c2ccc(Oc3cc(OC4CCN(C)C4=O)cc(C(=O)Nc4nc5ccccc5s4)c3)cc2)o1 (centres unmarked) [Example 14, N-(Benzo[d]thiazol-2-yl)-3-(4-(5-methyl-1,3,4-oxadiazol-2-yl)phenoxy)-5-((1-methyl-2-oxopyrrolidin-3-yl)oxy)benzamide]
10 | 95.5% | 126% | 206% | 237% | Cc1nnc(-c2ccc(Oc3cc(OC4CCN(C)C4=O)cc(C(=O)Nc4ncc(C(=O)O)s4)c3)cc2)o1 (centres unmarked) [Example 15, 2-(3-(4-(5-Methyl-1,3,4-oxadiazol-2-yl)phenoxy)-5-((1-methyl-2-oxopyrrolidin-3-yl)oxy)benzamido)thiazole-5-carboxylic acid]
11 | 106% | 169% | 259% | 280% | Cc1csc(NC(=O)c2cc(Oc3ccc(-c4nnc(C)o4)cc3)cc(OC3CCN(C(C)C)C3=O)c2)n1 (centres unmarked) [Example 16, 3((1-Isopropyl-2-oxopyrrolidin-3-yl)oxy)-5-(4-(5-methyl-1,3,4-oxadiazol-2-yl)phenoxy)-N-(4-methylthiazol-2-yl)benzamide]
12 | 125% | 158% | 192% | 178% | Cc1nnc(-c2ccc(Oc3cc(OC4CCN(C(C)C)C4=O)cc(C(=O)Nc4ncc(C)s4)c3)cc2)o1 (centres unmarked) [Example 17, 3((1-Isopropyl-2-oxopyrrolidin-3-yl)oxy)-5-(4-(5-methyl-1,3,4-oxadiazol-2-yl)phenoxy)-N-(5-methylthiazol-2-yl)benzamide]
13 | 125% | 201% | 253% | 280% | Cc1nnc(-c2ccc(Oc3cc(OC4CCN(C(C)C)C4=O)cc(C(=O)Nc4nccs4)c3)cc2)o1 (centres unmarked) [Example 18, 3((1-Isopropyl-2-oxopyrrolidin-3-yl)oxy)-5-(4-(5-methyl-1,3,4-oxadiazol-2-yl)phenoxy)-N-(thiazol-2-yl)benzamide]
14 | 114% | 208% | 305% | 282% | Cc1csc(NC(=O)c2cc(Oc3ccc(-c4nnc(C)o4)cc3)cc(OC3CCN(C4CC4)C3=O)c2)n1 (centres unmarked) [Example 19, 3((1-Cyclopropyl-2-oxopyrrolidin-3-yl)oxy)-5-(4-(5-methyl-1,3,4-oxadiazol-2-yl)phenoxy)-N-(4-methylthiazol-2-yl)benzamide]
15 | 121% | 188% | 208% | 196% | Cc1nnc(-c2ccc(Oc3cc(OC4CCN(C5CC5)C4=O)cc(C(=O)Nc4ncc(C)s4)c3)cc2)o1 (centres unmarked) [Example 20, 3((1-Cyclopropyl-2-oxopyrrolidin-3-yl)oxy)-5-(4-(5-methyl-1,3,4-oxadiazol-2-yl)phenoxy)-N-(5-methylthiazol-2-yl)benzamide]
16 | 120% | 213% | 278% | 281% | Cc1nnc(-c2ccc(Oc3cc(OC4CCN(C5CC5)C4=O)cc(C(=O)Nc4nccs4)c3)cc2)o1 (centres unmarked) [Example 21, 3((1-Cyclopropyl-2-oxopyrrolidin-3-yl)oxy)-5-(4-(5-methyl-1,3,4-oxadiazol-2-yl)phenoxy)-N-(thiazol-2-yl)benzamide]
17 | 163% | 283% | 347% | 320% | Cc1csc(NC(=O)c2cc(Oc3ccc(-c4noc(C)n4)cc3)cc(OC3CCN(C)C3=O)c2)n1 (centres unmarked) [Example 22, 3-(4-(5-Methyl-1,2,4-oxadiazol-3-yl)phenoxy)-5-((1-methyl-2-oxopyrrolidin-3-yl)oxy)-N-(4-methylthiazol-2-yl)benzamide]
